In patent publication EP0167710A1, “Use of benomyl for the manufacture of a medicament against ichthyophthyriasis” (Eduro World Investments Inc., priority 1984, dated 1986):

Columns and labels:
[1] = test system: Ichthiophthyriasis auslösenden Parasiten; experiment: Treatment of Ichthyophthyriasis-infected fish in aquaria (Beispiel 2); type: in vivo; conditions: after 7 Behandlungstagen; 18 Neonsalmler per tank; conditions of Beispiel 1, repeat dose equal to the initial dose
Description: (§1) Unter gleichen Bedingungen wurden in drei Fischbehältern A, B und C (40 Liter) je 16 Sumatrabarben ausgesetzt. Die Wassertemperatur betrug 25 + 1°C. Nach eintägiger Haltung wurden die Fische in Kontakt mit Ichthiophthyriasis auslösenden Parasiten gebracht. Nach visuell sichtbarer Infektion wurden zugesetzt: • Im Aquarium A: Reines Wasser • Im Aquarium B: 1-(N-Butylcarbamoyl)-2-(methoxycarbonyl-amino)-benzimidazol (als pulverförmiges Gemisch. Konzentration an Wirkstoff 0,2 mg/ml) • Im Aquarium C: Malachitgrün (Wirkstoffkonzentrat-0,03 mg/ml)
(§2) Die Zugabe wurde mit der halben Dosierung nach 3 bis 5 Tagen wiederholt.
Unter den Bedingungen des Beispiels 1 wurden jeweils 18 Neonsalmler behandelt. Die Nachdosierung erfolgte jedoch in Höhe der Anfangsdosierung.

[2] = test system: Ichthiophthyriasis auslösenden Parasiten; experiment: Treatment of Ichthyophthyriasis-infected fish in aquaria (Beispiel 1); type: in vivo; conditions: 6 days after start of treatment, 16 Sumatrabarben per 40 Liter tank, Benomyl 0,2 mg/ml, Malachitgrün 0,03 mg/ml, repeated at half dose after 3 bis 5 Tagen; for Ausfälle: 25 + 1°C
Description: as §1, §2

CN(C)c1ccc(C(=C2C=CC(=[N+](C)C)C=C2)c2ccccc2)cc1 [Malachitgrün]
Ausfälle [1]: Ein Ausfall | Ausfälle [2]: 2 Tieren pro Becken | Schuppenbild [2]: normalisiert

CCCCNC(=O)n1c(NC(=O)OC)nc2ccccc21 [Benomyl]
Ausfälle [1]: Keine Ausfälle | Ausfälle [2]: 2 Tieren pro Becken | Schuppenbild [2]: normalisiert
